{"source": "patent US11925612B2", "about": "“Bactericidal and virucidal pharmaceutical composition” (Quimica Luar SRL, priority 2015, dated 2024)", "assay_in_all_cases": "Bactericidal test: CFU count after incubation in PBS buffer", "key": {"[1]": {"system": "Staphylococcus aureus (Gram+)", "type": "cell-based", "details": "control 1,000,000; for Colony count (UFC/mL ± 10) Staphylococcus: 4 hours at 37° C., Example 9; for Colony count (UFC/mL ± 10) S. aureus: 4-hour at 37° C., Example 15; for Colony count (UFC/mL ± 10): 4-hour contact at 37° C., Example 8"}, "[2]": {"system": "Bacillus subtilis (Gram+)", "type": "cell-based", "details": "4-hour contact at 37° C., control 500,000, Example 8"}, "[3]": {"system": "Enterococcus faecalis (Gram+)", "type": "cell-based", "details": "4-hour contact at 37° C., control 100,000, Example 8"}, "[4]": {"system": "Escherichia coli", "type": "cell-based", "details": "4-hour contact at 37° C., control 1,000,000, Example 8"}, "[5]": {"system": "P. aeruginosa", "type": "cell-based, Pseudomonas aeruginosa", "details": "for P. aeruginosa count (UFC/mL ± 10) As a function of treatment time: 37° C., control 2,000,000, Example 6; for Colony count (UFC/mL ± 10) Pseudomonas: Example 9"}}}
{"smiles": "CC(C)Cc1ccc(C(C)C(=O)O)cc1.[Na]", "note": "(stereo not drawn) [IBU-Na, SODIUM IBUPROFEN]", "values": [{"measurement": "Colony count (UFC/mL ± 10) Staphylococcus", "setting": "[1]; IBU-Na 5 mM", "result": "1,000,000 UFC/mL"}, {"measurement": "Colony count (UFC/mL ± 10) Staphylococcus", "setting": "[1]; IBU-Na 10 mM", "result": "1,000,000 UFC/mL"}, {"measurement": "Colony count (UFC/mL ± 10) S. aureus", "setting": "[1]; IBU-Na 12.5 mM + ClNa (1M)", "result": 100, "unit": "UFC/mL"}, {"measurement": "Colony count (UFC/mL ± 10) S. aureus", "setting": "[1]; IBU-Na 25 mM + ClNa (1M)", "result": 10, "unit": "UFC/mL"}, {"measurement": "Colony count (UFC/mL ± 10) Staphylococcus", "setting": "[1]; IBU-Na 25 mM", "result": "30,000 UFC/mL"}, {"measurement": "Colony count (UFC/mL ± 10) S. aureus", "setting": "[1]; IBU-Na 50 mM + ClNa (1M)", "result": 10, "unit": "UFC/mL"}, {"measurement": "Colony count (UFC/mL ± 10)", "setting": "[1]; IBU-Na 50 mM", "result": 550, "unit": "UFC/mL"}, {"measurement": "Colony count (UFC/mL ± 10) Staphylococcus", "setting": "[1]; IBU-Na 50 mM", "result": 600, "unit": "UFC/mL"}, {"measurement": "Colony count (UFC/mL ± 10)", "setting": "[1]; IBU-Na 100 mM", "result": 10, "unit": "UFC/mL"}, {"measurement": "Colony count (UFC/mL ± 10) Staphylococcus", "setting": "[1]; IBU-Na 100 mM", "result": 10, "unit": "UFC/mL"}, {"measurement": "Colony count (UFC/mL ± 10)", "setting": "[2]; IBU-Na 50 mM", "result": 250, "unit": "UFC/mL"}, {"measurement": "Colony count (UFC/mL ± 10)", "setting": "[2]; IBU-Na 100 mM", "result": 10, "unit": "UFC/mL"}, {"measurement": "Colony count (UFC/mL ± 10)", "setting": "[3]; IBU-Na 50 mM", "result": 180, "unit": "UFC/mL"}, {"measurement": "Colony count (UFC/mL ± 10)", "setting": "[3]; IBU-Na 100 mM", "result": 10, "unit": "UFC/mL"}, {"measurement": "Colony count (UFC/mL ± 10)", "setting": "[4]; IBU-Na 50 mM", "result": 500, "unit": "UFC/mL"}, {"measurement": "Colony count (UFC/mL ± 10)", "setting": "[4]; IBU-Na 100 mM", "result": 10, "unit": "UFC/mL"}, {"measurement": "P. aeruginosa (UFC/mL ± 10)", "setting": "[5]; IBU 10 mM, 4 h at 37° C., control 1,700,000, Example 4", "result": "760,000 UFC/mL"}, {"measurement": "P. aeruginosa (UFC/mL ± 10)", "setting": "[5]; IBU 20 mM y NaCl (1M), preincubated 1 hour with human Albumin 5 mg/mL, 4 hours at 37° C., control 1,000,000, Example 16", "result": 1500, "unit": "UFC/mL"}, {"measurement": "P. aeruginosa (UFC/mL ± 10)", "setting": "[5]; IBU 20 mM, 4 h at 37° C., control 1,700,000, Example 4", "result": "300,000 UFC/mL"}, {"measurement": "P. aeruginosa (UFC/mL ± 10)", "setting": "[5]; IBU 50 mM, 4 h at 37° C., control 1,700,000, Example 4", "result": 50, "unit": "UFC/mL"}, {"measurement": "P. aeruginosa count (UFC/mL ± 10) As a function of treatment time", "setting": "[5]; IBU-Na 1 mM, 1 hour", "result": "2,000,000 UFC/mL"}, {"measurement": "P. aeruginosa count (UFC/mL ± 10) As a function of treatment time", "setting": "[5]; IBU-Na 1 mM, 4 hours", "result": "2,000,000 UFC/mL"}, {"measurement": "P. aeruginosa count (UFC/mL ± 10) As a function of treatment time", "setting": "[5]; IBU-Na 1 mM, Overnight (O.N.)", "result": "2,000,000 UFC/mL"}, {"measurement": "P. aeruginosa (UFC/mL ± 10)", "setting": "[5]; IBU-Na 1 mM, Population A (control 200,000), 4 h at 37° C., Example 5", "result": "200,000 UFC/mL"}, {"measurement": "P. aeruginosa (UFC/mL ± 10)", "setting": "[5]; IBU-Na 1 mM, Population B (control 20,000), 4 h at 37° C., Example 5", "result": "20,000 UFC/mL"}, {"measurement": "P. aeruginosa (UFC/mL ± 10)", "setting": "[5]; IBU-Na 1 mM, Population C (control 2,000), 4 h at 37° C., Example 5", "result": "2,000 UFC/mL"}, {"measurement": "P. aeruginosa count (UFC/mL ± 10) As a function of treatment time", "setting": "[5]; IBU-Na 2.5 mM, 1 hour", "result": "2,000,000 UFC/mL"}, {"measurement": "P. aeruginosa count (UFC/mL ± 10) As a function of treatment time", "setting": "[5]; IBU-Na 2.5 mM, Overnight (O.N.)", "result": "2,000,000 UFC/mL"}, {"measurement": "P. aeruginosa (UFC/mL ± 10)", "setting": "[5]; IBU-Na 5 mM + ClNa (1M), 1 hour, 37° C. pH 6.5, control 800,000, Example 13", "result": "16,000 UFC/mL"}, {"measurement": "P. aeruginosa (UFC/mL ± 10)", "setting": "[5]; IBU-Na 5 mM + ClNa (1M), 2 hours, 37° C. pH 6.5, control 800,000, Example 13", "result": "13,000 UFC/mL"}, {"measurement": "P. aeruginosa (UFC/mL ± 10)", "setting": "[5]; IBU-Na 5 mM + ClNa (1M), 4 hours, 37° C. pH 6.5, control 800,000, Example 13", "result": "8,500 UFC/mL"}, {"measurement": "Colony count (UFC/mL ± 10) Pseudomonas", "setting": "[5]; IBU-Na 5 mM, 4 hours at 37° C., control 1,700,000", "result": "1,700,000 UFC/mL"}, {"measurement": "P. aeruginosa (UFC/mL ± 10)", "setting": "[5]; IBU-Na 5 mM, Population A (control 200,000), 4 h at 37° C., Example 5", "result": "150,000 UFC/mL"}, {"measurement": "P. aeruginosa (UFC/mL ± 10)", "setting": "[5]; IBU-Na 5 mM, Population B (control 20,000), 4 h at 37° C., Example 5", "result": "17,000 UFC/mL"}, {"measurement": "P. aeruginosa (UFC/mL ± 10)", "setting": "[5]; IBU-Na 10 mM + ClNa (1M), 1 hour, 37° C. pH 6.5, control 800,000, Example 13", "result": 30, "unit": "UFC/mL"}, {"measurement": "P. aeruginosa (UFC/mL ± 10)", "setting": "[5]; IBU-Na 10 mM + ClNa (1M), 2 hours, 37° C. pH 6.5, control 800,000, Example 13", "result": 30, "unit": "UFC/mL"}, {"measurement": "Colony count (UFC/mL ± 10) Pseudomonas", "setting": "[5]; IBU-Na 10 mM, 4 hours at 37° C., control 1,700,000", "result": "760,000 UFC/mL"}, {"measurement": "P. aeruginosa count (UFC/mL ± 10) As a function of treatment time", "setting": "[5]; IBU-Na 10 mM, Overnight (O.N.)", "result": "900,000 UFC/mL"}, {"measurement": "P. aeruginosa (UFC/mL ± 10)", "setting": "[5]; IBU-Na 10 mM, Population B (control 20,000), 4 h at 37° C., Example 5", "result": "3,500 UFC/mL"}]}
